Experimental data as given in patent publication US20080200473A1, “Imidazo [1,2-a]Pyridine Compounds, Compositions, Uses and Methods Thereto” (Ferrer Internacional, S.A., priority 2004, published 2008).

Key:
α2-GABAA receptor = assay: Ligand-binding assay, competitive with radiolabeled flumazenil, spinal cord membranes; settings: Affinity for α2-GABAA receptor, rat spinal cord membranes, radiolabeled flumazenil 1 nM; for % Inhibition 10^−5M: 10^-5M test compound; for % Inhibition 10^−7M: 10^-7M test compound
Method: (§1) Ligand-binding assays. Determination of the affinity of test compounds for α1- and α2-GABAA receptor.
(§2) Male Sprague-Dawley rats weighing 200-250 g at the time of experiment were used. After decapitation of the animal, the cerebellum (tissue that mostly contains α1-GABAA receptor) and spinal cord (tissue that mostly contains α2-GABAA receptor) were removed. The membranes were prepared according to the method by J. Lameh et al. (Prog. Neuro-Psychopharmacol. Biol. Psychiatry, 24, 979-991, 2000) and H. Noguchi et al. (Eur. J. Pharm., 434, 21-28, 2002). Once the tissues weighed, they were suspended in 50 mM Tris.HCl (pH 7.4), 1:40 (w/v), or sucrose 0.32 M in the case of spinal cord, homogenized and then centrifuged at 20,000 g for 10 min at 7° C. twice. The resulting pellet was resuspended under the same conditions and centrifuged again. The pellet was finally resuspended on a minimum volume and kept at −80° C. overnight. On the next day, the process was repeated until the final pellet was resuspended at a ratio of 1:10 (w/v) in the case of cerebellum and at a ratio of 1:5 (w/v) in the case of spinal cord.
(§3) Affinity was determined by competitive tests using radiolabeled flumazenil as ligand. The tests were performed according to the methods described by S. Arbilla et al. (Eur. J. Pharmacol., 130, 257-263, 1986); and Y. Wu et al. (Eur. J. Pharmacol., 278, 125-132, 1995) using 96-well microtiter plates. The membranes containing the study receptors, flumazenil (radiolabeling at a final concentration of 1 nM) and ascending concentrations of test compounds (in a total volume of 230 μL in 50 mM [ph 7.4] Tris.HCl buffer) were incubated. Simultaneously, the membranes were only incubated with the radiolabeled flumazenil (total binding, 100%) and in the presence of an elevated concentration of unradiolabeled flumazenil (non-specific binding, % estimation of radiolabeled ligand). The reactions started on adding the radiolabeled ligand followed by incubation for 60 minutes at 4° C. At the end of the incubation period, 200 μL of reaction were transferred to a multiscreen plate (Millipore) and filtered using a vacuum manifold and then washed three times with cold test buffer. The multiscreen plates were equipped with a GF/B filter that retained the membranes containing the receptors and the radiolabeled ligand which has been bound to the receptors. After washing, the plates were left till dry. Once dried, scintillation liquid was added and left under stirring overnight. The next day the plates were counted using a Perkin-Elmer Microbeta scintillation counter.
(§4) For analysis of the results the percentage of specific binding for every concentration of test compound was calculated as follows:
(§5) % specific binding=(X−N/T−N)×100
(§6) where, X: amount of bound ligand for every concentration of compound. T: total binding, maximum amount bound to the radiolabeled ligand. N: non-specific binding, amount of radiolabeled ligand bound in a non-specific way irrespective of the receptor used.
(§7) Every concentrations of compound were tested in triplicate and their mean values were used to determine the experimental values of % specific binding versus the concentration of compound. Affinity data are expressed as % inhibition at 10^-5M and 10^-7M concentrations.

α1-GABAA receptor = assay: Ligand-binding assay, competitive with radiolabeled flumazenil, cerebellum membranes; settings: Affinity for α1-GABAA receptor, rat cerebellum membranes, radiolabeled flumazenil 1 nM; for % Inhibition 10^−5M: 10^-5M test compound; for % Inhibition 10^−7M: 10^-7M test compound
Method: as §1, §2, §3, §4, §5, §6, §7

mice = assay: In vivo predictive sedation-hypnosis test (inhibition of traveled distance); set-up: species or system mouse; settings: male CD1 mice; single equimolecular intraperitoneal doses; traveled distance over 30 min after dosing (first 5 min discarded) versus control
Method: In vivo determination of predictive sedative-hypnotic action.
The in vivo effects of these compounds were assessed by a predictive sedation-hypnosis test in mice (D. J. Sanger et al., Eur. J. Pharmacol., 313, 35-42, 1996; and G. Griebel et al., Psychopharmacology, 146, 205-213, 1999).
Groups of 5-8 male CD1 mice, weighing 22-26 g at the time of test, were used. The test compounds were administered in single equimolecular intraperitoneal doses, suspended in 0.25% agar with one drop of Tween in a volume of 10 mL/kg. Control animals received the vehicle alone. Using a Smart System (Panlab, S. L., Spain) the traveled distance in cm is recorded for each mouse at 5-min intervals during a period of 30 minutes after dosing. The inhibition percentage of traveled distance of treated animals versus control animals (the first 5 min were discarded) was calculated.

Structure (SMILES) | % Inhibition 10^−5M (α2-GABAA receptor) [%] | % Inhibition 10^−7M (α2-GABAA receptor) [%] | % Inhibition 10^−5M (α1-GABAA receptor) [%] | % Inhibition 10^−7M (α1-GABAA receptor) [%] | % Inhibition Motor Activity (mice) [%]
Cc1ccc(-c2nc3ccc(C)cn3c2CNC(=O)c2ccc3ccccc3n2)cc1 [Example 19, Quinoline-2-carboxylic acid (6-methyl-2-p-tolyl-imidazo[1,2-a]pyridin-3-ylmethyl)-amide] | 47.6 | 0.0 | 95.5 | 0.0 | 47.98
Cc1ccc(-c2nc3ccc(C)cn3c2CNC(=O)c2ncc(F)cc2F)cc1 [Example 20, 3,5-Difluoro-pyridine-2-carboxylic acid (6-methyl-2-p-tolyl-imidazo[1,2-a]pyridin-3-ylmethyl)-amide] | 95.2 | 0.0 | 99.8 | 65.9 | 91.99
COc1ccc2nc(C(=O)NCc3c(-c4ccc(C)cc4)nc4ccc(C)cn34)sc2c1 [Example 21, 6-Methoxy-benzothiazole-2-carboxylic acid (6-methyl-2-p-tolyl-imidazo[1,2-a]pyridin-3-ylmethyl)-amide] | 25.6 | 0.0 | 67.9 | 3.5 | 57.14
Cc1ccc(-c2nc3ccc(C)cn3c2CN(C)C(=O)c2ccc(N(C)C)cc2)cc1 [Example 22, 4-Dimethylamino-N-methyl-N-(6-methyl-2-p-tolyl-imidazo[1,2-a]pyridin-3-ylmethyl)-benzamide] | 9.4 | 0.0 | 84.8 | 62.3 | 89.45
Cc1ccc(-c2nc3ccc(C)cn3c2CN(C)C(=O)C2CC2)cc1 [Example 24, Cyclopropanecarboxylic acid methyl-(6-methyl-2-p-tolyl-imidazo[1,2-a]pyridin-3-ylmethyl)-amide] | 14.4 | 0.0 | 99.8 | 75.2 | 80.71
COc1ccc(C(=O)N(C)Cc2c(-c3ccc(C)cc3)nc3ccc(C)cn23)cc1 [Example 25, 4-Methoxy-N-methyl-N-(6-methyl-2-p-tolyl-imidazo[1,2-a]pyridin-3-ylmethyl)-benzamide] | 0.0 | 0.0 | 91.9 | 26.6 | 67.34
Cc1ccc(-c2nc3ccc(C)cn3c2CN(C)C(=O)c2ccccn2)cc1 [Example 28, Pyridine-2-carboxylic acid methyl-(6-methyl-2-p-tolyl-imidazo[1,2-a]pyridin-3-ylmethyl)-amide] | 93.9 | 14.3 | 99.8 | 73.3 | 55.64
Cc1ccc(-c2nc3ccc(C)cn3c2CN(C)C(=O)c2cccs2)cc1 [Example 29, Thiophene-2-carboxylic acid methyl-(6-methyl-2-p-tolyl-imidazo[1,2-a]pyridin-3-ylmethyl)-amide] | 90.2 | 25.0 | 99.7 | 84.9 | 93.98
Cc1ccc(C(=O)N(C)Cc2c(-c3ccc(C)cc3)nc3ccc(C)cn23)cc1 [Example 30, 4,N-Dimethyl-N-(6-methyl-2-p-tolyl-imidazo[1,2-a]pyridin-3-ylmethyl)-benzamide] | 33.9 | 0.0 | 90.5 | 4.6 | 44.36
Cc1ccc(-c2nc3ccc(C)cn3c2CN(C)C(=O)c2ccc([N+](=O)[O-])cc2)cc1 [Example 31, N-Methyl-N-(6-methyl-2-p-tolyl-imidazo[1,2-a]pyridin-3-ylmethyl)-4-nitro-benzamide] | 38.8 | 0.0 | 82.5 | 1.2 | 69.67
Cc1ccc(-c2nc3ccc(C)cn3c2CN(C)C(=O)c2ccc([N+](=O)[O-])o2)cc1 [Example 32, 5-Nitro-furan-2-carboxylic acid methyl-(6-methyl-2-p-tolyl-imidazo[1,2-a]pyridin-3-ylmethyl)-amide] | 77.5 | 0.0 | 98.0 | 14.5 | 92.66
Cc1ccc(-c2nc3ccc(C)cn3c2CN(C)C(=O)c2ncc(F)cc2F)cc1 [Example 33, 3,5-Difluoro-pyridine-2-carboxylic acid methyl-(6-methyl-2-p-tolyl-imidazo[1,2-a]pyridin-3-ylmethyl)-amide] | 74.0 | 0.0 | 98.4 | 37.3 | 35.02
Cc1ccc(-c2nc3ccc(C)cn3c2CN(C)C(=O)c2ccnc(Cl)c2)cc1 [Example 34, 2-Chloro-N-methyl-N-(6-methyl-2-p-tolyl-imidazo[1,2-a]pyridin-3-ylmethyl)-isonicotinamide] | 85.0 | 0.0 | 98.8 | 39.6 | 92.98
Cc1ccc(-c2nc3ccc(C)cn3c2CN(C)C(=O)c2ccc3ccccc3n2)cc1 [Example 35, Quinoline-2-carboxylic acid methyl-(6-methyl-2-p-tolyl-imidazo[1,2-a]pyridin-3-ylmethyl)-amide] | 3.7 | 0.0 | 67.1 | 31.8 | 33.19
C#CCN(Cc1c(-c2ccc(C)cc2)nc2ccc(C)cn12)C(=O)C1CC1 [Example 42, Cyclopropanecarboxylic acid (6-methyl-2-p-tolyl-imidazo[1,2-a]pyridin-3-ylmethyl)-prop-2-ynyl-amide] | 49.7 | 0.0 | 92.7 | 12.4 | 40.35
Cc1ccc(-c2nc3ccc(C)cn3c2CNC(=O)C2CCC2)cc1 [Example 58, Cyclobutanecarboxylic acid (6-methyl-2-p-tolyl-imidazo[1,2-a]pyridin-3-ylmethyl)-amide] | 78.6 | 9.2 | 98.8 | 6.5 | 94.25
Cc1ccc(-c2nc3ccc(C)cn3c2CNC(=O)c2cnc(C)cn2)cc1 [Example 61, 5-Methyl-pyrazine-2-carboxylic acid (6-methyl-2-p-tolyl-imidazo[1,2-a]pyridin-3-ylmethyl)-amide] | 98.5 | 48.3 | 100.0 | 85.4 | 90.55
